Laboratory results from patent publication US20240132431A1, “METHOD FOR ALKYLATING ACIDIC FUNCTIONAL GROUP” (Chugai Seiyaku Kabushiki Kaisha, priority 2021, published 2024).

Target: T1, Bcl-2 protein (Recombinant Human Bcl-2 Protein) (Homo sapiens, UniProt P10415)
T1 construct: purchased Novus NBP2-34889
Experiment: Binding evaluation of mixture library compounds to Bcl-2 using AS-MS (affinity selection mass spectrometry)
Settings: AS-MS, mixture library, Bcl-2, ASMS Ratio(%)=(A−C)/B×100; for ASMS ratio (%) n = 1: replicate n = 1; for ASMS ratio (%) n = 2: replicate n = 2
How it was run: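 Readout is ASMS Ratio (%), (A−C)/B×100, from reversed-phase LC/MS of SEC-passed extracts, with protein-free unfiltered standard (B) and protein-free SEC blank (C). Recombinant human Bcl-2 at 20 μM final met ~1200 pooled compounds at […] each for 1 h, 23° C., dark, in Tris-HCl pH 7.4 buffer.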

T1 sequence (P10415 whole entry): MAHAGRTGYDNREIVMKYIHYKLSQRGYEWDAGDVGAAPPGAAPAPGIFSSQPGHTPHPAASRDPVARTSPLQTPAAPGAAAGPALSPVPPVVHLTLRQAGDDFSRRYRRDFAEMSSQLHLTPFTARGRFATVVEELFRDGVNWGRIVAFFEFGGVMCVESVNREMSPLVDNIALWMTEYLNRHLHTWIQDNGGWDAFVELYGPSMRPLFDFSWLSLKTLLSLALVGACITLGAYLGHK

Row | SMILES | ASMS ratio (%) n = 1 | ASMS ratio (%) n = 2
1 | CCOc1cncc(C#Cc2cncc(C(=O)N3CCN(c4ccc(C(=O)NS(=O)(=O)c5ccc(NCCSc6ccccc6)c([N+](=O)[O-])c5)nn4)CC3)c2)c1 [B2Q010-01, 6-[4-[5-[2-(5-Ethoxypyridin-3-yl)ethynyl]pyridine-3-carbonyl]piperazin-1-yl]-N-[3-nitro-4-(2-phenylsulfanylethylamino)phenyl]sulfonylpyridazine-3-carboxamide] | 13.3% | 8.9%
2 | CCOc1cccc(-c2ccccc2CCC(=O)N2CCN(c3ccc(C(=O)NS(=O)(=O)c4ccc(NCCSc5ccccc5)c([N+](=O)[O-])c4)nn3)CC2)c1 [B2Q011-01, 6-[4-[3-[2-(3-Ethoxyphenyl)phenyl]propanoyl]piperazin-1-yl]-N-[3-nitro-4-(2-phenylsulfanylethylamino)phenyl]sulfonylpyridazine-3-carboxamide] | 25.0% | −1.1%
3 | CCOc1cccc(-c2ccc(C(=O)N3CCN(c4ccc(C(=O)NS(=O)(=O)c5ccc(NCCSc6ccccc6)c([N+](=O)[O-])c5)nn4)CC3)c3ccccc23)c1 [B2Q013-01, 6-[4-[4-(3-Ethoxyphenyl)naphthalene-1-carbonyl]piperazin-1-yl]-N-[3-nitro-4-(2-phenylsulfanylethylamino)phenyl]sulfonylpyridazine-3-carboxamide] | 0.0% | 0.0%
4 | CCOc1cncc(-c2ccc(C(=O)N3CCN(c4ccc(C(=O)NS(=O)(=O)c5ccc(NCCSc6ccccc6)c([N+](=O)[O-])c5)nn4)CC3)c3ccccc23)c1 [B2Q014-01, 6-[4-[4-(5-Ethoxypyridin-3-yl)naphthalene-1-carbonyl]piperazin-1-yl]-N-[3-nitro-4-(2-phenylsulfanylethylamino)phenyl]sulfonylpyridazine-3-carboxamide] | 9.3% | 14.5%
5 | CCOc1cccc(-c2cc(C(=O)N3CCN(c4ccc(C(=O)NS(=O)(=O)c5ccc(NCCSc6ccccc6)c([N+](=O)[O-])c5)nn4)CC3)cc(C(C)(C)C)c2)c1 [B2Q015-01, 6-[4-[3-tert-Butyl-5-(3-ethoxyphenyl)benzoyl]piperazin-1-yl]-N-[3-nitro-4-(2-phenylsulfanylethylamino)phenyl]sulfonylpyridazine-3-carboxamide] | 17.1% | 13.2%
6 | CCOc1cncc(-c2cc(C(=O)N3CCN(c4ccc(C(=O)NS(=O)(=O)c5ccc(NCCSc6ccccc6)c([N+](=O)[O-])c5)nn4)CC3)cc(C(C)(C)C)c2)c1 [B2Q016-01, 6-[4-[3-tert-Butyl-5-(5-ethoxypyridin-3-yl)benzoyl]piperazin-1-yl]-N-[3-nitro-4-(2-phenylsulfanylethylamino)phenyl]sulfonylpyridazine-3-carboxamide] | 10.6% | 6.5%
7 | CCOc1cccc(-c2cc(C(=O)N3CCN(c4ccc(C(=O)NS(=O)(=O)c5ccc(NCCSc6ccccc6)c([N+](=O)[O-])c5)nn4)CC3)cc(C(F)(F)F)c2)c1 [B2Q017-01, 6-[4-[3-(3-Ethoxyphenyl)-5-(trifluoromethyl)benzoyl]piperazin-1-yl]-N-[3-nitro-4-(2-phenylsulfanylethylamino)phenyl]sulfonylpyridazine-3-carboxamide] | 12.8% | 0.2%
8 | CCOc1cncc(-c2cc(C(=O)N3CCN(c4ccc(C(=O)NS(=O)(=O)c5ccc(NCCSc6ccccc6)c([N+](=O)[O-])c5)nn4)CC3)cc(C(F)(F)F)c2)c1 [B2Q018-01, 6-[4-[3-(5-Ethoxypyridin-3-yl)-5-(trifluoromethyl)benzoyl]piperazin-1-yl]-N-[3-nitro-4-(2-phenylsulfanylethylamino)phenyl]sulfonylpyridazine-3-carboxamide] | – | 0.0%
9 | CCOc1cccc(C#Cc2cc(C(=O)N3CCN(c4ccc(C(=O)NS(=O)(=O)c5ccc(NCCSc6ccccc6)c([N+](=O)[O-])c5)nn4)CC3)cc(C(F)(F)F)c2)c1 [B2Q019-01, 6-[4-[3-[2-(3-Ethoxyphenyl)ethynyl]-5-(trifluoromethyl)benzoyl]piperazin-1-yl]-N-[3-nitro-4-(2-phenylsulfanylethylamino)phenyl]sulfonylpyridazine-3-carboxamide] | 0.7% | 14.1%
10 | CCOc1cncc(C#Cc2cc(C(=O)N3CCN(c4ccc(C(=O)NS(=O)(=O)c5ccc(NCCSc6ccccc6)c([N+](=O)[O-])c5)nn4)CC3)cc(C(F)(F)F)c2)c1 [B2Q020-01, 6-[4-[3-[2-(5-Ethoxypyridin-3-yl)ethynyl]-5-(trifluoromethyl)benzoyl]piperazin-1-yl]-N-[3-nitro-4-(2-phenylsulfanylethylamino)phenyl]sulfonylpyridazine-3-carboxamide] | 6.1% | 5.6%
11 | CCOc1cccc(-c2cnn(-c3cc(C(=O)N4CCN(c5ccc(C(=O)NS(=O)(=O)c6ccc(NCCSc7ccccc7)c([N+](=O)[O-])c6)nn5)CC4)cc(C(F)(F)F)c3)c2)c1 [B2Q021-01, 6-[4-[3-[4-(3-Ethoxyphenyl)pyrazol-1-yl]-5-(trifluoromethyl)benzoyl]piperazin-1-yl]-N-[3-nitro-4-(2-phenylsulfanylethylamino)phenyl]sulfonylpyridazine-3-carboxamide] | 0.0% | 0.0%
12 | CCOc1cncc(-c2cnn(-c3cc(C(=O)N4CCN(c5ccc(C(=O)NS(=O)(=O)c6ccc(NCCSc7ccccc7)c([N+](=O)[O-])c6)nn5)CC4)cc(C(F)(F)F)c3)c2)c1 [B2Q022-01, 6-[4-[3-[4-(5-Ethoxypyridin-3-yl)pyrazol-1-yl]-5-(trifluoromethyl)benzoyl]piperazin-1-yl]-N-[3-nitro-4-(2-phenylsulfanylethylamino)phenyl]sulfonylpyridazine-3-carboxamide] | 13.8% | 23.6%
13 | CCOc1cccc(-c2csc(C(=O)N3CCN(c4ccc(C(=O)NS(=O)(=O)c5ccc(NCCSc6ccccc6)c([N+](=O)[O-])c5)cc4)CC3)c2)c1 [B2Q023-01, 4-[4-[4-(3-Ethoxyphenyl)thiophene-2-carbonyl]piperazin-1-yl]-N-[3-nitro-4-(2-phenylsulfanylethylamino)phenyl]sulfonylbenzamide] | 0.0% | 0.0%
14 | CCOc1cncc(-c2csc(C(=O)N3CCN(c4ccc(C(=O)NS(=O)(=O)c5ccc(NCCSc6ccccc6)c([N+](=O)[O-])c5)cc4)CC3)c2)c1 [B2Q024-01, 4-[4-[4-(5-Ethoxypyridin-3-yl)thiophene-2-carbonyl]piperazin-1-yl]-N-[3-nitro-4-(2-phenylsulfanylethylamino)phenyl]sulfonylbenzamide] | 4.5% | 7.5%
15 | CCOc1cccc(-c2ccc(C(=O)N3CCN(c4ccc(C(=O)NS(=O)(=O)c5ccc(NCCSc6ccccc6)c([N+](=O)[O-])c5)cc4)CC3)cc2C)c1 [B2Q025-01, 4-[4-[4-(3-Ethoxyphenyl)-3-methylbenzoyl]piperazin-1-yl]-N-[3-nitro-4-(2-phenylsulfanylethylamino)phenyl]sulfonylbenzamide] | −5.7% | 0.0%
16 | CCOc1cncc(-c2ccc(C(=O)N3CCN(c4ccc(C(=O)NS(=O)(=O)c5ccc(NCCSc6ccccc6)c([N+](=O)[O-])c5)cc4)CC3)cc2C)c1 [B2Q026-01, 4-[4-[4-(5-Ethoxypyridin-3-yl)-3-methylbenzoyl]piperazin-1-yl]-N-[3-nitro-4-(2-phenylsulfanylethylamino)phenyl]sulfonylbenzamide] | 4.4% | 0.4%
17 | CCOc1cccc(-c2ccc(C(=O)N3CCN(c4ccc(C(=O)NS(=O)(=O)c5ccc(NCCSc6ccccc6)c([N+](=O)[O-])c5)cc4)CC3)cc2F)c1 [B2Q027-01, 4-[4-[4-(3-Ethoxyphenyl)-3-fluorobenzoyl]piperazin-1-yl]-N-[3-nitro-4-(2-phenylsulfanylethylamino)phenyl]sulfonylbenzamide] | 0.2% | −2.5%
18 | CCOc1cncc(-c2ccc(C(=O)N3CCN(c4ccc(C(=O)NS(=O)(=O)c5ccc(NCCSc6ccccc6)c([N+](=O)[O-])c5)cc4)CC3)cc2F)c1 [B2Q028-01, 4-[4-[4-(5-Ethoxypyridin-3-yl)-3-fluorobenzoyl]piperazin-1-yl]-N-[3-nitro-4-(2-phenylsulfanylethylamino)phenyl]sulfonylbenzamide] | 0.0% | −3.7%
19 | CCOc1cncc(C#Cc2ccccc2C(=O)N2CCN(c3ccc(C(=O)NS(=O)(=O)c4ccc(NCCSc5ccccc5)c([N+](=O)[O-])c4)cc3)CC2)c1 [B2Q030-01, 4-[4-[2-[2-(5-Ethoxypyridin-3-yl)ethynyl]benzoyl]piperazin-1-yl]-N-[3-nitro-4-(2-phenylsulfanylethylamino)phenyl]sulfonylbenzamide] | 6.6% | −4.1%
20 | CCOc1cccc(C#Cc2cncc(C(=O)N3CCN(c4ccc(C(=O)NS(=O)(=O)c5ccc(NCCSc6ccccc6)c([N+](=O)[O-])c5)cc4)CC3)c2)c1 [B2Q031-01, 4-[4-[5-[2-(3-Ethoxyphenyl)ethynyl]pyridine-3-carbonyl]piperazin-1-yl]-N-[3-nitro-4-(2-phenylsulfanylethylamino)phenyl]sulfonylbenzamide] | 6.6% | −4.1%
